In brackets after ≈: the same amount, converted by molar mass. Like-named read-outs stand apart in the source and are kept apart here.
Legend:
HIV-1 protease = HIV-1 protease (Human immunodeficiency virus type 1 group M subtype B, UniProt P03369); assay: biochemical; conditions: for IC50: HIV-1 Protease IC50 (μM) 1M NaCl
in vitro [1] = assay: in vitro
Description: Cytotoxicity. The MTT assay was performed as follows:
The cells were seeded in 96-well plates and grown overnight to near 50% confluency. A serial dilution (1 to 500 μM) of each compound in culture media was prepared and 250 μL/well was added in duplicate. The cells were allowed to grow for various periods of time (6, 24, 48 hours) and any precipitation of compounds in the wells was noted. The assay was performed by removing 200 μL of the culture media and adding 25 μL of MTT solution (2 mg/mL in phosphate buffered saline (PBS)). This was incubated for 4 hours at 37° C. and live cells began to turn purple while the solution remained yellow. To quench the reaction and solubilize the reaction product, 160 μL of acidified isopropanol (4 mL 1N HCl for 96 mL alcohol) were added and the resulting mixture was mixed vigorously to dissolve purple crystals. Absorbance was determined at 550-570 nm on an ELISA plate reader within 0.5-2 hours. […] To obtain the LD50 values for each compound, the concentration at which the absorbance is haft of that for the untreated cells was determined.

HIV-2 protease = target: T1, HIV-2 protease (Human immunodeficiency virus type 2 subtype A, UniProt P04584); assay: biochemical; conditions: 1M NaCl
T1 construct: the coding region of the 99-amino acid protease; made in house; host or cells: Saccharomyces cerevisiae strain AB110, plasmid pHIV2PR115
Description: The decapeptide was synthesized by conventional solid-state methods. Reactions were carried out and fractionated by HPLC. Conversion of the decapeptide to the two pentapeptides was quantitated by integration of the peak areas and comparison to product standard curves.
Enzymatic Inhibition. […] Each data point was done in triplicate and initial enzyme rates were fit to the Michaelis-Menten equation using a nonlinear regression program ("Enzfitter" from Biosoft).

HIV-1 PR Q7K = HIV-1 PR Q7K (Human immunodeficiency virus type 1 group M subtype B, UniProt P03369, Q497K); assay type: biochemical; conditions: read-out: kinact (μM) HIV-1; inhibitor concentration resulting in half-maximal inactivation; pH 8.0, 25° C.
in vitro [2] = conditions: african green monkey, cos-7 cells
Description: MTT cell viability assay. This is a quantitative colorimetric assay for mammalian cell survival and proliferation. Cells were seeded in 96 well plates and grown to near 50% confluency. A serial dilution (1 to 500 μM) of each compound was then prepared in culture media and added (250 μL/well) in duplicate. All culture media was adjusted to a final concentration of 1.0% DMSO (volume basis). The cells were allowed to grow for either 4 hours or 24 hours. The culture media were then removed, and the cells were washed with phosphate buffered saline (PBS) before 50 μL of MTT solution (1 mg/mL in PBS) was added. After incubating for 4 hours at 37° C., the reaction was quenched by adding 160 μL of acidified isopropanol and mixing to dissolve purple crystals. The absorbance was determined within 30 minutes at 570 nm on an ELISA plate reader.
The cytotoxic effect of the inhibitors was determined using the MTT stain viability assay.

p24 = p24 core antigen ELISA of virus from treated COS-7 cells; conditions: Human immunodeficiency virus 1, COS-7, 4 h, read-out: Reduction of p24 IC50 (μM)
Description: Drug treatment. The compounds were added 48 hours post-transfection, at the peak of virus production, and the incubation was restricted to a 4-hour period. […] Culture media were adjusted to the desired concentration of these compounds just prior to the addition of the media to cells. To avoid precipitation, the compounds were aliquoted first to a tube in sufficient DMSO to yield a 1.0% final concentration, and subsequently the culture medium was added quickly and vortexed. The culture medium was collected after 4 hours of incubation of the cells with each of the compounds. This culture supernatant is the source of virus for measurement of infectivity as well as levels of p24 and other capsid proteins.
p24 Core antigen ELISA assay. An ELISA kit purchased from NEN/Dupont was used to determine the amount of p24 present in culture media or virus preparations. This capture assay uses a monoclonal antibody that preferentially binds p24 while it reacts with larger capsid protein precursors to a very limited extent. The assay was carded out using the manufacturer's indications. Samples were pre-treated with 1% Triton to inactivate the virus.
Virus isolation by ultracentrifugation. The culture medium was filtered through a 0.45 μm syringe filter and was then centrifuged to remove any precipitate. The medium was then spun through a cushion of 20% sucrose in PBS in an SW41 Beckman rotor for 1.5 hours at 35K and 4° C. The pelleted material was collected.
Following incubation of virus-producing cells with various concentrations of the test compounds, the virus particles were isolated by ultracentrifugation. These particles were disrupted using Triton X-100 and the amount of p24 capsid protein was quantitated by ELISA.

HIV-2 PR = target: T2, HIV-2 PR (Human immunodeficiency virus type 2 subtype A, UniProt P04584); assay: biochemical; assay type: biochemical; conditions: for KI (inactivation): read-out: kinact (μM) HIV-2
T2 construct: HIV-2 PR (at a final concentration of 30 μg/mL); made in house

[3] = inhibitor concentration resulting in half-maximal inactivation, pH 8.0, 25° C.
[4] = pH 8, maximum inactivation rate, read-out: Vinact (min^-1 × 10^3) HIV-2 (converted)

T2 sequence (P04584 514-612 limits assumed): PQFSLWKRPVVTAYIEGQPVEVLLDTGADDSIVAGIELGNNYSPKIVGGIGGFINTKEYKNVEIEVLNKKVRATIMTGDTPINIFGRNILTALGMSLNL
T1 sequence (P04584 514-612 limits assumed): as above

Structure (SMILES) | IC50 (HIV-1 protease; 1M NaCl) [µM] | CC50 at 6 h (in vitro [1]) [µM] | solubility (Solubility) [µM] | IC50 (HIV-1 protease) [µM] | IC50 (HIV-2 protease) [µM] | solubility (physchem) [µM] | other results
C=C(CCCC1(O)CCC(O)(c2ccc(Cl)cc2)CC1)c1ccccc1 (stereo not drawn) [UCSF41, 4-(4'-phenyl-4-pentenyl)-1-(p-chlorophenyl)-1,4-cyclohexanediol] | 160 | 90 | > 500 |  |  |  | HIV-1 Protease Therapeutic Index (LD50 /IC50) (HIV-1 protease; LD50/IC50): 0.6
OC1(CCCCc2ccccc2)CCC(O)(c2ccc(Cl)cc2)CC1 (stereo not drawn) [UCSF54] | 2500 | 190 | > 500 |  |  |  | HIV-1 Protease Therapeutic Index (LD50 /IC50) (HIV-1 protease; LD50/IC50): < 0.08
O=C(CCCN1CCC(O)(c2ccc(Cl)cc2)CC1)c1ccccc1 [UCSF62] |  | 380 |  | 100 | 40 | < 250 | 
OC1(c2ccc(Cl)cc2)CCN(CCCN(Cc2ccccc2)Cc2ccc(-c3ccccc3)cc2)CC1 [UCSF63] |  | 25 |  | 18 | 15 | > 500 | 
O=C(CCCC1(O)CCC(O)(c2ccc(Cl)cc2)CC1)c1ccc(F)cc1 (stereo not drawn) [UCSF65, 4-(4'-p-fluorophenyl-4'-butanone)-1-p-chlorophenyl-1,4-cyclohexanediol] |  | 250 | < 100 |  |  |  | 
O=C(Cc1ccccc1)N(CCCN1CCC(O)(c2ccc(Cl)cc2)CC1)Cc1ccccc1 [UCSF66] |  | 25 |  | 70 | 48 | < 250 | HIV-1 Protease Therapeutic Index (LD50 /IC50) (HIV-1 protease): 0.3
O=C(CCC[N+]1([O-])CCC(O)(c2ccc(Cl)cc2)CC1)c1cccc(-c2ccccc2)c1 (stereo not drawn) [UCSF67] |  | > 25 |  | 80 | 10 | > 25 | HIV-1 Protease Therapeutic Index (LD50 /IC50) (HIV-1 protease): 0.3
C#CCC(CCN1CCC(O)(c2ccc(Cl)cc2)CC1)C(=O)c1ccc(F)cc1 (stereo not drawn) [UCSF68] |  | 100 |  | 105 | 48 | < 500 | 
C#CCC(CC#C)(CCN1CCC(O)(c2ccc(Cl)cc2)CC1)C(=O)c1ccc(F)cc1 [UCSF69] |  | 220 |  | 50 | 60 | < 100 | 
OC1(C#CC2(c3ccccc3)CO2)CCN(Cc2ccccc2)CC1 (stereo not drawn) [UCSF70, N-benzyl-4-hydroxy-4-(3,4-epoxy-3-phenyl-1-butyny)piperidine] | 750 | 120 | > 500 |  |  |  | KI (inactivation) (HIV-1 PR Q7K): 407 ± 61.6 µM; CC50 at 4 h (in vitro [2]): 70 µM; CC50 at 24 h (in vitro [2]): 35 µM; IC50 (p24): 25 µM
OC(CC#CC1(O)CCN(Cc2ccccc2)CC1)c1ccccc1 (stereo not drawn) [UCSF72] | 750 | 260 | > 500 |  |  |  | 
CC(CCc1ccccc1)N1CCC(O)(c2ccc(Cl)cc2)CC1 (stereo not drawn) [UCSF73] |  | 360 |  | 100 | 188 | < 500 | 
OC1(C2(c3ccc(Cl)cc3)SCCCS2)CCN(CCCC2(c3ccc(F)cc3)SCCS2)CC1 [UCSF75] | 50 | 200 | < 50 |  | 13 |  | 
OC(CC=CC1(O)CCN(Cc2ccccc2)CC1)c1ccccc1 (stereo not drawn) [UCSF76] | 1650 | 440 | > 500 |  |  |  | 
OC(CCCC1(O)CCN(Cc2ccccc2)CC1)c1ccccc1 (stereo not drawn) [UCSF77] | 2500 | 500 | > 500 |  | 500 |  | 
OC1(c2ccc(Cl)cc2)CCN(CCCC2(c3ccc(F)cc3)OCCS2)CC1 (stereo not drawn) [UCSF78] |  | 35 |  | 39 | 167 | > 500 | 
CC[C@@H]1CSC(CCCN2CCC(O)(c3ccc(Cl)cc3)CC2)(c2ccc(F)cc2)O1 (stereo partly drawn) [UCSF79] |  | 35 |  | 30 | 68 | > 250 | 
CC[C@H]1CSC(CCCN2CCC(O)(c3ccc(Cl)cc3)CC2)(c2ccc(F)cc2)O1 (stereo partly drawn) [UCSF80] |  | 40 |  | 33 | 58 | > 250 | 
O=C(c1ccc(N2CCC(O)(c3ccc(Cl)cc3)CC2)cc1)C1CC1 [UCSF81] | 200 | > 250 | > 250 |  | 1000 |  | HIV-1 Protease Therapeutic Index (LD50 /IC50) (HIV-1 protease; LD50/IC50): > 1.25
C=CCCCC1(C(=O)c2ccc(N3CCC(O)(c4ccc(Cl)cc4)CC3)cc2)CC1 [UCSF82] | 100 | > 250 | < 100 |  | 800 |  | 
O=C(c1ccc(N2CCC(O)(c3ccc(Cl)cc3)CC2)cc1)C1(CC#CCO)CC1 [UCSF83] | 15 | > 250 | > 250 |  | 78 |  | 
O=C(C#CCN1CCC(O)(c2ccc(Cl)cc2)CC1)c1ccccc1 [UCSF86, 4-(4'-(4"-chlorophenyl)-4'-hydroxypiperidinyl)-1-phenylbut-2-yn-1-one] |  | 15 to 20 |  | 20 |  | > 60 | KI (inactivation) (HIV-1 PR Q7K): 62.4 ± 3.1 µM; KI (inactivation) (HIV-2 PR; [3]): 131 ± 4.4 µM; kinact (HIV-2 PR; [4]): 0.0076 min⁻¹; CC50 at 4 h (in vitro [2]): 15 µM; CC50 at 24 h (in vitro [2]): < 10 µM
O=C(/C=C/C[N+]1([O-])CCC(O)(c2ccc(Cl)cc2)CC1)c1ccc(F)cc1 (stereo not drawn) [UCSF115] |  | 250 |  | 30 |  | 250 (≈ 97.5 µg/mL) | KI (inactivation) (HIV-1 PR Q7K): 144 ± 14.8 µM; KI (inactivation) (HIV-2 PR; [3]): 116 ± 4.7 µM; kinact (HIV-2 PR; [4]): 0.0052 min⁻¹; CC50 at 4 h (in vitro [2]): 250 µM; CC50 at 24 h (in vitro [2]): 200 µM; IC50 (p24): 75 µM
O=C(C=C(CN1CCC(O)(c2ccc(Cl)cc2)CC1)SCCO)c1ccccc1 [UCSF178, 4-(4'-(4"-chlorophenyl)-4'-hydroxypiperidinyl)-3-(2'-hydroxyethylthio)-1-phenyl-2-buten-1-one] |  | > 250 |  | 140 |  | 150 (≈ 64.8 µg/mL) | KI (inactivation) (HIV-1 PR Q7K): 232 ± 10.8 µM; KI (inactivation) (HIV-2 PR; [3]): 120 ± 9.9 µM; kinact (HIV-2 PR; [4]): 0.0046 min⁻¹; CC50 at 4 h (in vitro [2]): > 250 µM; CC50 at 24 h (in vitro [2]): 75 µM
O=C(/C=C/CN1CCC(O)(c2ccc(Cl)cc2)CC1)c1ccc(F)cc1 [UCSF191] |  | 22 |  | 80 |  | > 150 | KI (inactivation) (HIV-1 PR Q7K): 57.2 ± 7.1 µM; kinact (HIV-2 PR; pH 8, read-out: Vinact (min^-1 × 10^3) HIV-2): 0.0121 min⁻¹; KI (inactivation) (HIV-2 PR; hiv-2 pr, pH 8): 156 ± 2.3 µM
O=C(C#CCN1CCC(O)(c2ccc(Cl)cc2)CC1)c1ccc(-c2ccccc2)cc1 [UCSF231, 4-(4'-(4"-chlorophenyl)-4'-hydroxypiperidinyl)-1-p-biphenylbut-2-yn-1-one] |  | 10 |  | 100 |  |  | HIV-1 Protease Therapeutic Index (LD50 /IC50) (HIV-1 protease): < 0.1; KI (inactivation) (HIV-1 PR Q7K): 385 ± 58 µM; CC50 at 4 h (in vitro [2]): < 5 µM; CC50 at 24 h (in vitro [2]): < 5 µM
